Experiments:
Experiment in all cases: relative viability (nuclei count vs DMSO), 5 days (fraction); higher = more cells survive
NCI-H838 = system: NCI-H838
How it was run: (§1)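 One day after seeding in 1536-well plates, lung cancer cell lines were dosed by pin tool. Dosing was either single-drug or a fixed anchor-drug dose plus five library-drug doses (not always all listed) in √10 steps. After 5 days, nuclei were stained in one fix-and-stain step and counted on 4× images, and relative viability is the nuclei count of treated wells over that of vehicle wells, given as the median of duplicate plates.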

UMC-11 = system: UMC-11
How it was run: as §1

NCI-H1944 = system: NCI-H1944
How it was run: as §1

H3255 = system: H3255
How it was run: as §1

LC-2-ad = system: LC-2-ad
How it was run: as §1

NCI-H2087 = system: NCI-H2087
How it was run: as §1

ChaGo-K-1 = system: ChaGo-K-1
How it was run: as §1

SK-MES-1 = system: SK-MES-1
How it was run: as §1

HCC-15 = system: HCC-15
How it was run: as §1

LCLC-97TM1 = system: LCLC-97TM1
How it was run: as §1

LXF-289 = system: LXF-289
How it was run: as §1

NCI-H1666 = system: NCI-H1666
How it was run: as §1

LK-2 = system: LK-2
How it was run: as §1

BEN = system: BEN
How it was run: as §1

HCC-78 = system: HCC-78
How it was run: as §1

NCI-H1651 = system: NCI-H1651
How it was run: as §1

LU99A = system: LU99A
How it was run: as §1

NCI-H322M = system: NCI-H322M
How it was run: as §1

PC-3 [JPC-3] = system: PC-3 [JPC-3]
How it was run: as §1

NCI-H596 = system: NCI-H596
How it was run: as §1

Work on `C[C@@H]1CN(CC(=O)Nc2ccc3c(c2)Cc2cccc(-c4cc(=O)cc(N5CCOCC5)o4)c2S3)C[C@H](C)O1` + CC1(C)CCC(c2ccc(Cl)cc2)=C(CN2CCN(c3ccc(C(=O)NS(=O)(=O)c4ccc(N[C@H](CCN5CCOCC5)CSc5ccccc5)c(S(=O)(=O)C(F)(F)F)c4)cc3)CC2)C1 [Navitoclax] (partner 0.5 µM) yielded a relative viability (NCI-H838; first compound 0.04 µM) of 1.17, a relative viability (NCI-H838; first compound 0.1265 µM) of 1.16 and a relative viability (NCI-H838; first compound 0.4 µM) of 1.07. For the same compound, the relative viability (NCI-H838; first compound 4 µM) was 0.896, the relative viability (UMC-11; first compound 0.04 µM) was 0.32 and the relative viability (UMC-11; first compound 0.1265 µM) was 0.288. For the same compound, the relative viability (UMC-11; first compound 0.4 µM) was 0.301, the relative viability (UMC-11; first compound 4 µM) was 0.229 and the relative viability (NCI-H1944; first compound 0.1265 µM) was 1.02. It also gave a relative viability (NCI-H1944; first compound 0.4 µM) of 1.11, a relative viability (NCI-H1944; first compound 4 µM) of 1.06 and a relative viability (H3255; first compound 0.04 µM) of 0.475. For the same compound, the relative viability (H3255; first compound 0.1265 µM) was 0.411, the relative viability (H3255; first compound 0.4 µM) was 0.463 and the relative viability (H3255; first compound 4 µM) was 0.518. For the same compound, the relative viability (LC-2-ad; first compound 0.04 µM) was 0.587, the relative viability (LC-2-ad; first compound 0.1265 µM) was 0.46 and the relative viability (LC-2-ad; first compound 0.4 µM) was 0.336. It also gave a relative viability (LC-2-ad; first compound 4 µM) of 0.29, a relative viability (NCI-H2087; first compound 0.04 µM) of 0.971 and a relative viability (NCI-H2087; first compound 0.1265 µM) of 1.1. It also gave a relative viability (NCI-H2087; first compound 0.4 µM) of 0.909, a relative viability (NCI-H2087; first compound 4 µM) of 0.923 and a relative viability (ChaGo-K-1; first compound 0.1265 µM) of 0.933. It also gave a relative viability (ChaGo-K-1; first compound 0.4 µM) of 0.956, a relative viability (ChaGo-K-1; first compound 4 µM) of 0.936 and a relative viability (SK-MES-1; first compound 0.04 µM) of 1.37. It also gave a relative viability (SK-MES-1; first compound 0.1265 µM) of 1.16, a relative viability (SK-MES-1; first compound 0.4 µM) of 1.1 and a relative viability (SK-MES-1; first compound 4 µM) of 1.1. The relative viability (HCC-15; first compound 0.04 µM) was 0.7, the relative viability (HCC-15; first compound 0.1265 µM) was 0.639 and the relative viability (HCC-15; first compound 0.4 µM) was 0.682. For the same compound, the relative viability (HCC-15; first compound 4 µM) was 0.556, the relative viability (LCLC-97TM1; first compound 0.1265 µM) was 0.645 and the relative viability (LCLC-97TM1; first compound 0.4 µM) was 0.279. For the same compound, the relative viability (LCLC-97TM1; first compound 4 µM) was 0.318, the relative viability (LXF-289; first compound 0.04 µM) was 0.941 and the relative viability (LXF-289; first compound 0.1265 µM) was 0.929. It also gave a relative viability (LXF-289; first compound 0.4 µM) of 1, a relative viability (LXF-289; first compound 4 µM) of 0.913 and a relative viability (NCI-H1666; first compound 0.04 µM) of 1.14. It also gave a relative viability (NCI-H1666; first compound 0.1265 µM) of 1.12, a relative viability (NCI-H1666; first compound 0.4 µM) of 0.862 and a relative viability (NCI-H1666; first compound 4 µM) of 0.781. It also gave a relative viability (LK-2; first compound 0.1265 µM) of 0.83, a relative viability (LK-2; first compound 0.4 µM) of 0.831 and a relative viability (LK-2; first compound 4 µM) of 1.02. The relative viability (BEN; first compound 0.04 µM) was 0.0641, the relative viability (BEN; first compound 0.1265 µM) was 0.0514 and the relative viability (BEN; first compound 0.4 µM) was 0.0961. The relative viability (BEN; first compound 4 µM) was 0.0488, the relative viability (HCC-78; first compound 0.04 µM) was 0.668 and the relative viability (HCC-78; first compound 0.1265 µM) was 0.706. For the same compound, the relative viability (HCC-78; first compound 0.4 µM) was 0.69, the relative viability (HCC-78; first compound 4 µM) was 0.914 and the relative viability (NCI-H1651; first compound 0.04 µM) was 1.05. The relative viability (NCI-H1651; first compound 0.1265 µM) was 0.987, the relative viability (NCI-H1651; first compound 0.4 µM) was 0.836 and the relative viability (NCI-H1651; first compound 4 µM) was 1.03. It also gave a relative viability (LU99A; first compound 0.04 µM) of 0.856, a relative viability (LU99A; first compound 0.1265 µM) of 0.758 and a relative viability (LU99A; first compound 0.4 µM) of 0.926. For the same compound, the relative viability (LU99A; first compound 4 µM) was 0.821, the relative viability (NCI-H322M; first compound 0.04 µM) was 1.17 and the relative viability (NCI-H322M; first compound 0.1265 µM) was 1.18. The relative viability (NCI-H322M; first compound 0.4 µM) was 1.23, the relative viability (NCI-H322M; first compound 4 µM) was 1.12 and the relative viability (PC-3 [JPC-3]; first compound 0.04 µM) was 0.875. The relative viability (PC-3 [JPC-3]; first compound 0.1265 µM) was 0.795, the relative viability (PC-3 [JPC-3]; first compound 0.4 µM) was 0.836 and the relative viability (PC-3 [JPC-3]; first compound 4 µM) was 0.835. It also gave a relative viability (NCI-H596; first compound 0.04 µM) of 0.958, a relative viability (NCI-H596; first compound 0.1265 µM) of 0.994 and a relative viability (NCI-H596; first compound 0.4 µM) of 0.934. The relative viability (NCI-H596; first compound 4 µM) was 0.992.

Source: the supplement of paper PMC10307832
